{
  "source": "patent US4048328A",
  "about": "“Alkyl derivatives of 4,5-dehydro PGF1” (American Home Products Corporation, priority 1976, dated 1977)",
  "key": {"gastric secretion": {"system": "gastric secretion", "conditions": "in vivo; cited from earlier work"}, "[1]": {"conditions": "basic and acidic conditions; cited from earlier work"}, "mated hamsters": {"system": "mated hamsters", "experiment": "abortifacient test in mated hamsters (Labhsetwar)", "assay_type": "in vivo, hamster", "conditions": "Mesocricetus auratus, sc", "experimental": "Furthermore, when the compounds of this invention are tested by the method of A. P. Labhsetwar, Nature 230, 528 (1971) whereby the compound is given subcutaneously on a daily basis to mated hamsters on days 4, 5 and 6 of pregnancy, thereafter the animals being sacrificed on day 7 of pregnancy and the number of abortions counted, the compounds are shown to have abortifacient properties."}, "pregnancy [2]": {"system": "pregnancy", "conditions": "rhesus monkey; cited from earlier work"}, "pregnancy [3]": {"system": "pregnancy", "conditions": "human; cited from earlier work"}, "[4]": {"system": "secretion of gastric acid", "experiment": "inhibition of gastric acid secretion in rats (Shay et al.)", "assay_type": "in vivo", "conditions": "po; orally, rat", "experimental": "For example, when trans,cis-7-[2-(3-hydroxy-4,4-dimethyl-1-octenyl)-5-oxocyclopentyl]-5-heptanoic acid (Example 68) is given orally to the rat according to the aforementioned method, an ED50 of about 1.0 mg/kg is obtained for the compound."}, "horse": {"system": "horse", "experiment": "synchronization of estrus and regulation of ovulation in the horse", "assay_type": "in vivo", "conditions": "given on second and third day before expected estrus; rectal palpation", "source_text": "It is often desirable to synchronize estrus in domestic animals, for example, horses, cattle, sheep, swine or dogs, in order to be able to perform artificial insemination or mating with a male of the desired genetic quality under optimum conditions. In the past, this has been done by administering to the animals an ovulation-inhibiting agent, withdrawing administration of said agent shortly before the date chosen for mating or artificial insemination, and relying either upon the natural production of LH and FSH to induce ovulation and to produce estrus or by administering gonadotrophins. However, this procedure was not entirely satisfactory because ovulation at a predetermined time occured only in a certain proportion of the animals when gonadotrophins were not used. On the other hand, the high cost of gonadotrophins and side effects encountered in their administration needs this method impractical. It is now possible to obtain substantially complete synchronization of ovulation and of estrus, by treating the animals in a given group with the compound of formula 1 before the predetermined period of time for mating or artificial insemination, so as to obtain ovulation and estrus within that time interval. The delay in the onset of ovulation and estrus following administration of the compound of this invention varies with the species of animal. […]"}, "[5]": {"system": "guinea pig tracheal strip", "experiment": "relaxation of carbachol-induced contractions of isolated guinea pig tracheal strips", "conditions": "for RELAXATION of tracheal strip: carbachol-contracted, mean of 12 strips", "source_text": "The relaxation of the guinea pig tracheal strip by trans-7-[2-(3-hydroxy-3-methyl-1-octenyl)-5-oxocyclopentyl]heptanoic acid (Isomer B'). Each value is the mean of the responses of 12 strips."}, "[6]": {"system": "histamine-induced bronchoconstriction", "experiment": "histamine-induced bronchoconstriction in the anesthetized guinea pig (Greenberg and Beaulieu)", "assay_type": "in vivo", "experimental": "(§1) Maximal effect was seen within 3 minutes after 10 μg/kg and returned to the control level within 50 minutes. Hypotension of short duration (1 - 2 minutes) occurred following this mode of administration. […] Maximal effect was seen within 3 minutes after 0.1 μg/kg and returned to the control level within 70 minutes.\nPercentage inhibition of histamine-induced bronchoconstriction in the anesthetized guinea pig after intravenous administration of trans-7-[2-(3-hydroxy-3-methyl-1-octenyl)-5-oxocyclopentyl]heptanoic acid (Isomer B'). Each value is the mean of 8 - 12 experiments.\nPercentage inhibition of histamine-induced bronchoconstriction in the anesthetized guinea pig after aerosol administration of trans-7-[2-(3-hydroxy-3-methyl-1-oxtenyl)-5-oxocyclopentyl]heptanoic acid (Isomer B'). Each value is the mean of 8 - 12 experiments."}, "blood pressure": {"system": "blood pressure", "experiment": "blood pressure after administration in the anesthetized guinea pig", "assay_type": "in vivo", "conditions": "after aerosol administration", "experimental": "as §1"}, "[7]": {"conditions": "168 h, subcutaneous, days 4, 5 and 6 of pregnancy, sacrificed day 7, read-out: dose giving complete abortion in all animals"}},
  "note": "Like-named read-outs stand apart in the source and are kept apart here.",
  "data": [
    {"smiles": "CCCCC(C)(C)[C@H](O)/C=C/[C@H]1[C@H](O)CC(=O)[C@@H]1C/C=C\\CCCC(=O)OC", "note": "[16,16-dimethyl PGE2 methyl ester]", "values": [
      {"measurement": "effect on gastric secretion", "setting": "gastric secretion", "result": "effective in inhibiting gastric acid secretion"}
    ]},
    {"smiles": "CCCCC[C@](C)(O)/C=C/[C@H]1[C@H](O)CC(=O)[C@@H]1C/C=C\\CCCC(=O)O", "note": "[15(S)-methyl PGE2]", "values": [
      {"measurement": "effect on gastric secretion", "setting": "gastric secretion", "result": "inhibit gastric secretion"}
    ]},
    {"smiles": "CCCCC[C@H](O)/C=C/[C@H]1[C@H](O)CC(=O)[C@@H]1C/C=C\\CCCC(=O)O", "note": "[PGE2]", "values": [
      {"measurement": "dehydration of the 11-hydroxy group", "setting": "[1]", "result": "participates readily in dehydration reactions"}
    ]},
    {"smiles": "CCCCCC(C)(O)/C=C/[C@H]1CCC(O)[C@@H]1C/C=C\\CCCC(=O)O", "note": "(relative stereo) [trans, cis-7[2-hydroxy-5-(3-hydroxy-3-methyl-1-octenyl)cyclopentyl]-5-heptenoic acid]", "values": [
      {"measurement": "ED100", "setting": "mated hamsters; [7]", "result": 0.5, "unit": "mg/kg/day"}
    ]},
    {"smiles": "CCCCCC(C)(O)/C=C/[C@H]1CCC(=O)[C@@H]1CC/C=C\\CCC(=O)O", "note": "(relative stereo) [trans, cis-7-[2-(3-hydroxy-3-methyl-1-octenyl)-5-oxocyclopentyl]-4-heptenoic acid]", "values": [
      {"measurement": "ED100", "setting": "mated hamsters; [7]", "result": 1, "unit": "mg/kg/day"}
    ]},
    {"smiles": "CCCCC[C@](C)(O)/C=C/[C@@H]1[C@@H](C/C=C\\CCCC(=O)O)[C@@H](O)C[C@H]1O", "note": "[15-Methyl PGF2α]", "values": [
      {"measurement": "effect on pregnancy", "setting": "pregnancy [2]", "result": "interrupt pregnancy"},
      {"measurement": "effect on pregnancy", "setting": "pregnancy [3]", "result": "interrupt pregnancy"}
    ]},
    {"smiles": "CCCCC(C)(C)C(O)/C=C/[C@H]1CCC(=O)[C@@H]1C/C=C\\CCCC(=O)O", "note": "(relative stereo) [trans, cis-7-[2-(3-hydroxy-4,4-dimethyl-1-octenyl)-5-oxocyclopentyl]-5-heptenoicacid]", "values": [
      {"measurement": "ED50", "setting": "[4]", "result": "~1", "unit": "mg/kg"}
    ]},
    {"smiles": "CCCCCC(C)(O)/C=C/[C@H]1CC[C@H](O)[C@@H]1C/C=C\\CCCC(=O)O", "note": "(relative stereo) [trans, cis-7-[2α-hydroxy-5-(3-hydroxy-3-methyl-1-octenyl)cyclopentyl]-5-heptenoic acid]", "values": [
      {"measurement": "ovulation after estrus (majority of animals)", "setting": "horse", "result": "from the fourth to the sixth day"}
    ]},
    {"smiles": "CCCCC[C@@](C)(O)/C=C/[C@H]1[C@H](O)CC(=O)[C@@H]1C/C=C\\CCCC(=O)O", "note": "[15(R)-methyl]", "values": [
      {"measurement": "effect on gastric secretion", "setting": "gastric secretion", "result": "inhibit gastric secretion"}
    ]},
    {"smiles": "CCCCCC(C)(O)/C=C/[C@H]1CCC(=O)[C@@H]1CCCCCCC(=O)O", "note": "(single isomer, unassigned) [Isomer B', trans-7-[2-(3-hydroxy-3-methyl-1-octenyl)-5-oxocyclopentyl]-heptanoic acid]", "values": [
      {"measurement": "RELAXATION of tracheal strip", "setting": "[5]; 1.0 μg/ml", "result": "0.2 ± 0.2", "unit": "g"},
      {"measurement": "RELAXATION of tracheal strip", "setting": "[5]; 3.0 μg/ml", "result": "0.39 ± 0.04", "unit": "g"},
      {"measurement": "RELAXATION of tracheal strip", "setting": "[5]; 10 μg/ml", "result": "0.79 ± 0.1", "unit": "g"},
      {"measurement": "RELAXATION of tracheal strip", "setting": "[5]; 30 μg/ml", "result": "1.29 ± 0.1", "unit": "g"},
      {"measurement": "relaxation of the tracheal strip, dose relation", "setting": "[5]; cumulative concentrations", "result": "linear dose related relaxation"},
      {"measurement": "inhibition at 1e-05 mg/kg", "setting": "[6]; Cavia porcellus, intravenous, 0.01 μg/kg, mean of 8 - 12 experiments", "result": "14.8 ± 2", "unit": "%"},
      {"measurement": "inhibition at 0.0001 mg/kg", "setting": "[6]; Cavia porcellus, intravenous, 0.1 μg/kg, mean of 8 - 12 experiments", "result": "46.4 ± 5.5", "unit": "%"},
      {"measurement": "inhibition at 0.001 mg/kg", "setting": "[6]; Cavia porcellus, intravenous, 1.0 μg/kg, mean of 8 - 12 experiments", "result": "66 ± 5.4", "unit": "%"},
      {"measurement": "inhibition at 0.01 mg/kg", "setting": "[6]; Cavia porcellus, intravenous, 10.0 μg/kg, mean of 8 - 12 experiments", "result": "81.9 ± 5.2", "unit": "%"},
      {"measurement": "inhibition of histamine-induced bronchoconstriction, dose relation", "setting": "[6]; aerosol", "result": "linear dose related inhibition"},
      {"measurement": "times more potent than prostaglandin E2 or 11-deoxy-prostaglandin E1", "setting": "[6]; aerosol", "result": 78, "unit": "times"},
      {"measurement": "time of maximal effect", "setting": "[6]; aerosol, after 0.1 μg/kg", "result": "≤ 3", "unit": "min"},
      {"measurement": "time of return to the control level", "setting": "[6]; aerosol, after 0.1 μg/kg", "result": "≤ 70", "unit": "min"},
      {"measurement": "% INHIBITION of histamine-induced bronchoconstriction", "setting": "[6]; aerosol, total dose 10^-1 μg, mean of 8 - 12 experiments", "result": "78.1 ± 4.2", "unit": "%"},
      {"measurement": "% INHIBITION of histamine-induced bronchoconstriction", "setting": "[6]; aerosol, total dose 10^-2 μg, mean of 8 - 12 experiments", "result": "66.8 ± 4.7", "unit": "%"},
      {"measurement": "% INHIBITION of histamine-induced bronchoconstriction", "setting": "[6]; aerosol, total dose 10^-3 μg, mean of 8 - 12 experiments", "result": "49.3 ± 5.0", "unit": "%"},
      {"measurement": "% INHIBITION of histamine-induced bronchoconstriction", "setting": "[6]; aerosol, total dose 10^-4 μg, mean of 8 - 12 experiments", "result": "38.6 ± 5.9", "unit": "%"},
      {"measurement": "% INHIBITION of histamine-induced bronchoconstriction", "setting": "[6]; aerosol, total dose 10^-5 μg, mean of 8 - 12 experiments", "result": "20.9 ± 5.1", "unit": "%"},
      {"measurement": "inhibition of histamine-induced bronchoconstriction, dose relation", "setting": "[6]; intravenous", "result": "linear dose related inhibitions"},
      {"measurement": "times more potent than prostaglandin E2 or 11-deoxy-prostaglandin E1", "setting": "[6]; intravenous", "result": 32, "unit": "times"},
      {"measurement": "time of maximal effect", "setting": "[6]; intravenous, after 10 μg/kg", "result": "≤ 3", "unit": "min"},
      {"measurement": "time of return to the control level", "setting": "[6]; intravenous, after 10 μg/kg", "result": "≤ 50", "unit": "min"},
      {"measurement": "changes in the blood pressure", "setting": "blood pressure", "result": "no notable changes in the blood pressure"}
    ]},
    {"smiles": "CCCCCC(C)(O)/C=C/[C@H]1CCC(=O)[C@@H]1C/C=C\\CCCC(=O)O", "note": "(relative stereo) [trans, cis-7-[2-(3-Hydroxy-3-methyl-1-octenyl)-5-oxocyclopentyl]-5-heptenoic Acid]", "values": [
      {"measurement": "ED100", "setting": "mated hamsters; [7]", "result": 2.5, "unit": "mg/kg/day"}
    ]},
    {"smiles": "CCCCCC(C)(O)CCC1CCC(=O)C1CCCCCCC(=O)O", "note": "(centres unmarked) [2-(3-hydroxy-3-methyl-octyl)-5-oxocyclopentaneheptanoic acid, reference compound]", "values": [
      {"measurement": "ED100", "setting": "mated hamsters; comparison with saturated 15-methyl analog, above test, read-out: dose below which complete abortion is not caused", "result": "≥ 30", "unit": "mg/kg/day"}
    ]},
    {"smiles": "CCCCCC(C)(O)/C=C/[C@H]1[C@H](O)CC(=O)[C@@H]1C/C=C\\CCCC(=O)OC", "note": "(some centres unmarked) [15-methyl PGE2 methyl esters]", "values": [
      {"measurement": "effect on pregnancy", "setting": "pregnancy [2]", "result": "interrupt pregnancy"},
      {"measurement": "effect on pregnancy", "setting": "pregnancy [3]", "result": "interrupt pregnancy"}
    ]},
    {"smiles": "CCCCCC(C)(O)/C=C/[C@H]1CCC(=O)[C@@H]1CCCCCCC(=O)O", "note": "(relative stereo) [trans-7-[2-(3-hydroxy-3-methyl-1-octenyl)-5-oxocyclopentyl]-heptanoic acid]", "values": [
      {"measurement": "protection against histamine-induced bronchospasm", "setting": "[6]; anesthetized guinea pig", "result": "significant protection"}
    ]}
  ]
}
